Results taken from paper PMC7004140, “In vitro hepatotoxicity of Petasites hybridus extract (Ze 339) depends on the concentration, the cytochrome activity of the cell system, and the species used” (Phytotherapy Research, 2019).

Experiments:
HepG2 cells = test: WST-1 metabolic activity (cytotoxicity) in HepG2 cells; assay type: cell-based, human; conditions: HepG2, up to 250 μM, 4 hr
Experimental: (§1) HepG2 and H‐4‐II‐E cells were differentiated for 24 hr. HepaRG cells were directly seeded in precoated 96‐well microtiter plates and were incubated in William's medium with general purpose supplements according to manufacturer's manual until adherence. All cells were treated with Ze 339 (up to 100 μg/ml) or petasin, isopetasin, neopetasin, petasol, isopetasol, petasin mixture, fatty acid mixture, and reconstituted extracts (up to 250 μM) for 4 hr.
(§2) In the three cell lines, cytotoxicity was defined as a decrease in metabolic activity of ≥20% in the WST‐1 assay. At the end of the experiment, 10 μl WST‐1 reagent was added to each well. Plates were then incubated for 2 hr to allow for the reduction of WST‐1 reagent. Absorbance was measured using a microplate absorbance reader (Infinite M 200, Tecan Trading Ltd., Switzerland) at 450 nm, reference wavelength of 620 nm. Due to some matrix effect, the lowest concentration (0.02 μg/ml for Ze 339 and 3.9 μM for single constituents and mixtures) of each substance tested was defined as 100% metabolic activity. Results were expressed as percentage of the control metabolic activity, and data were presented as mean values ± SEM (n = 3–6).
(§3) Concentration‐response analysis was done using the sigmoidal Hill equation: E(t) = E0 − Emax × C(t)^N/(IC50 ^N + C(t)^N), where E is the effect at time t, E0 the effect at baseline (time = 0), IC50 the concentration yielding 50% of the maximal effect (Emax), and N denotes the sigmoidicity coefficient (Origin 2017 Software). For statistical analysis, analysis of variance with Dunnett's multicomparison test was used to correct for multiplicity of testing (IBM SPSS Statistics software, version 25, IBM Corp., USA). The level of significance was ^* p < .05, ^** p < .01 and ^*** p < .001; NS = no significance.

HepaRG cells [1] = test: WST-1 metabolic activity (cytotoxicity) in HepaRG cells; assay type: cell-based, human; conditions: 4 hr
Experimental: as §1, §2, §3

H-4-II-E cells = test: WST-1 metabolic activity (cytotoxicity) in H-4-II-E cells; assay type: cell-based, rat (Rattus norvegicus)
Experimental: as §1, §2, §3

HepaRG cells [2] = test: Coincubation of Ze 339 with single cytochrome inhibitors in HepaRG cells (WST-1); assay type: cell-based, human; conditions: inhibitor 10 μM, Ze 339 100 μg/ml, 4 hr
Experimental: To investigate whether metabolic activation by human phase I enzymes—at least in part—contributes to the cytotoxic effect, Ze 339 (concentrations up to 100 μg/ml) was coincubated in HepaRG cells for 4 hr with different single cytochromes inhibitors: ketoconazole (CYP3A4), sulfaphenazole (CYP2C9), montelukast (CYP2C8), omeprazole (CYP2C19), α‐naphthoflavone (CYP1A2), quinidine (CYP2D6), xanthotoxin (CYP2A6), chlormethiazole (CYP2E1), and ticlopidine (CYP2B6)—(each at a concentration of 10 μM). Inhibition of metabolic activity was evaluated with the WST‐1 assay using Ze 339 without inhibitor as a control.

SMILES: CC(C)=C1C[C@@]2(C)C(=CC1=O)CC[C@@H](O)[C@@H]2C [isopetasol]
- cytotoxic effects (HepG2 cells): did not show cytotoxic effects
- cytotoxicity (HepaRG cells [1]; highest concentration): not cytotoxic
- change in metabolic activity (H-4-II-E cells; from 7.8 to 125 μM): increase in metabolic activity
- change in metabolic activity (H-4-II-E cells; highest concentration): virtually no change

SMILES: CC(C)(O)c1ccccc1CC[C@@H](SCC1(CC(=O)O)CC1)c1cccc(/C=C/c2ccc3ccc(Cl)cc3n2)c1 [montelukast]
- effect of cytochrome inhibitor on the cytotoxic effect of Ze 339 (HepaRG cells [2]): attenuated

SMILES: C=C(C)[C@@H]1C[C@@]2(C)C(=CC1=O)CC[C@@H](O)[C@@H]2C [petasol]
- cytotoxic effects (HepG2 cells): did not show cytotoxic effects
- metabolic activity (HepaRG cells [1]; 250 μM): 68.6%
- metabolic activity (H-4-II-E cells; concentrations ≥125 μM): up to 109%
- change in metabolic activity (H-4-II-E cells; medium concentrations 15.6–62.5 μM): slight decrease

SMILES: C=C[C@H]1C[N@@]2CC[C@H]1C[C@@H]2[C@@H](O)c1ccnc2ccc(OC)cc12 [quinidine]
- effect of cytochrome inhibitor on the cytotoxic effect of Ze 339 (HepaRG cells [2]): attenuated
